Measured values taken from patent US6133292A, “Diaryl-5-alkyl-5-methyl-2-(5H)-furanones as selective cyclooxygenase-2-inhibitors” (Merck Frosst Canada & Co., priority 1998, dated 2000).
pIC50: −log10 of the molar value.

Experiments:
COX-1 [1] = target: T1, COX-1 (Homo sapiens, UniProt P23219); assay: Assay of COX-1 activity from U937 cell microsomes; type: biochemical; parameters: Assay of COX-1 Activity from U937 cell microsomes; endogenous in cells; host or cells: U937 cells, 100,000 x g microsomal fraction; conditions: read-out: U937 Cox-1 (IC50, inhibition of PGE2 production)
Protocol: Assay of COX-1 Activity from U937 cell microsomes
U 937 cells are pelleted by centrifugation at 500 x g for 5 min and washed once with phosphate-buffered saline and repelleted. Cells are resuspended in homogenization buffer consisting of 0.1 M Tris-HCl, pH 7.4, 10 mM EDTA, 2 μg/ml leupeptin, 2 μg/ml soybean trypsin inhibitor, 2 μg/ml aprotinin and 1 mM phenyl methyl sulfonyl fluoride. The cell suspension is sonicated 4 times for 10 sec and is centrifuged at 10,000 x g for 10 min at 4° C. The supernatant is centrifuged at 100,000 x g for 1 hr at 4° C. The 100,000 x g microsomal pellet is resuspended in 0.1 M Tris-HCl, pH 7.4, 10 mM EDTA to approximately 7 mg protein/mil and stored at -80° C.
Microsomal preparations are thawed immediately prior to use, subjected to a brief sonication, and then diluted to a protein concentration of 125 μg/ml in 0.1 M Tris-HCl buffer, pH 7.4 containing 10 mM EDTA, 0.5 mM phenol, 1 mM reduced glutathione and 1 μM hematin. Assays are performed in duplicate in a final volume of 250 μl. Initially, 5 μl of DMSO vehicle or drug in DMSO are added to 20 μl of 0.1 M Tris-HCl buffer, pH 7.4 containing 10 mM EDTA in wells of a 96-deepwell polypropylene titre plate. 200 μl of the microsomal preparation are then added and pre-incubated for 15 min at room temperature before addition of 25 μl of […] arachidonic acid in […] Tris-HCl and 10 mM EDTA, pH 7.4. Samples are incubated for 40 min at room temperature and the reaction is stopped by the addition of 25 μl of 1 N HCl. Samples are neutralized with 25 μl of 1 N NaOH prior to quantitation of PGE2 content by radioimmunoassay (Dupont-NEN or Amersham assay kits). Cyclooxygenase activity is defined as the difference between PGE2 levels in samples incubated in the presence of arachidonic acid and ethanol vehicle.
(§1) Compounds of the present invention are inhibitors of COX-2 and are thereby useful in the treatment of COX-2 mediated diseases as enumerated above. The activities of the compounds against cyclooxygenase may be seen in the representative results shown below. In the assay, inhibition is determined by measuring the amount of prostaglandin E2 (PGE2) synthesized in the presence of arachidonic acid, COX-1 or COX-2 and a putative inhibitor. The IC50 values represent the concentration of putative inhibitor required to lower PGE2 synthesis to 50% of that obtained as compared to the uninhibited control.

COX-1 [2] = target: T1, COX-1; assay: Human whole blood assay, COX-1 (clotting-induced TxB2 production); type: cell-based; parameters: platelets in whole blood contain a large amount of the COX-1 enzyme; from tissue; host or cells: fresh human whole blood without anticoagulant, platelets; conditions: clotting-induced TxB2, 1 hour at 37° C, read-out: HWB Cox-1 (IC50)
Protocol: (§2) Human whole blood provides a protein and cell-rich milieu appropriate for the study of biochemical efficacy of anti-inflammatory compounds such as selective COX-2 inhibitors. […] This is consistent with the observation that COX-2 inhibitors have no effect on PGE2 production in normal blood. These inhibitors are active only after incubation of human whole blood with LPS, which induces COX-2. This assay can be used to evaluate the inhibitory effect of selective COX-2 inhibitors on PGE2 production. As well, platelets in whole blood contain a large amount of the COX-1 enzyme. Immediately following blood clotting, platelets are activated through a thrombin-mediated mechanism. This reaction results in the production of thromboxane B2 (TXB2) via activation of COX-1. Thus, the effect of test compounds on TxB2 levels following blood clotting can be examined and used as an index for COX-1 activity. Therefore, the degree of selectivity by the test compound can be determined by measuring the levels of PGE2 after LPS induction (COX-2) and TxB2 following blood clotting (COX-1) in the same assay.
B. COX-1 (Clotting-induced TxB2 production)
Fresh blood is collected into vacutainers containing no anticoagulants. […] The tubes are vortexed and incubated at 37° C. for 1 hour to allow blood to clot. At the end of incubation, serum is obtained by centrifugation (12,000 x g for 5 min.). A 100 μL aliquot of serum is mixed with 400 μL of methanol for protein precipitation. The supernatant is obtained and is assayed for TxB2 using a enzyme immunoassay kit (Cayman, #519031) according to the manufacturer's instruction. […]

COX-2 = target: T2, COX-2 (Homo sapiens, UniProt P35354); assay: Human whole blood assay, COX-2 (LPS-induced PGE2 production); type: cell-based; parameters: incubation of human whole blood with LPS, which induces COX-2; from tissue; host or cells: fresh heparinized human whole blood from male and female volunteers, LPS-stimulated; conditions: 24 hours at 37° C, read-out: HWB Cox-2 (IC50, inhibition of PGE2 production)
T2 sequence (P35354 18-604): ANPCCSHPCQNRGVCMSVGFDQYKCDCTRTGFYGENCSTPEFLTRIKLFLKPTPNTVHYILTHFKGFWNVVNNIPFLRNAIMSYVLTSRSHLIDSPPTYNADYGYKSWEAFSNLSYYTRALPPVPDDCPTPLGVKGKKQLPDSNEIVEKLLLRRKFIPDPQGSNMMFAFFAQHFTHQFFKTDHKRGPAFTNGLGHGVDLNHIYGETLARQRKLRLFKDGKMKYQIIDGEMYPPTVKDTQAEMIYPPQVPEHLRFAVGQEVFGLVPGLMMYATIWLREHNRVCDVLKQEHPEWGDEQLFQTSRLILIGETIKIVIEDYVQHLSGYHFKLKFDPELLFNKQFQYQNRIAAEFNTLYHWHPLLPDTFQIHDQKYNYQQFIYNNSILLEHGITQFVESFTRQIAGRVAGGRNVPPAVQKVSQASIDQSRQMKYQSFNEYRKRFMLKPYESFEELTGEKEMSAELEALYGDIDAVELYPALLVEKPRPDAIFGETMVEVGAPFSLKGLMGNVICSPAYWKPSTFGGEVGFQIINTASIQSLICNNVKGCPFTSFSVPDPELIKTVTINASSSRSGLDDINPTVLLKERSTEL
Protocol: as §2
A. COX-2 (LPS-induced PGE9 production)
Fresh blood is collected in heparinized tubes by venipuncture from both male and female volunteers. The subjects have no apparent inflammatory conditions and have not taken any NSAIDs for at least 7 days prior to blood collection. Plasma is immediately obtained from a 2 mL blood aliquot to use as blank (basal levels of PGE2). The remaining blood is incubated with LPS (100 μg/ml final concentration, Sigma Chem, #L-2630 from E. coli; diluted in 0.1% BSA (Phosphate buffered saline) for 5 minutes at room temperature. Five hundred μL aliquots of blood are incubated with either 2 μL of vehicle (DMSO) or 2 μL of a test compound at final concentrations varying from 10 nM to 30 μM for 24 hours at 37° C. At the end of the incubation, the blood is centrifuged at 12,000 x g for 5 minutes to obtain plasma. A 100 μL aliquot of plasma is mixed with 400 μL of methanol for protein precipitation. The supernatant is obtained and is assayed for PGE2 using a radioimmunoassay kit (Amersham, RPA#530) after conversion of PGE2 to its methyl oximate derivative according to the manufacturer's procedure.
as §1

[3] = Pharmacokinetics in rats (half-life); type: in vivo, rat (male Sprague Dawley); conditions: rat, blood, read-out: T 1/2 in Rats (converted)
Description: Per Os Pharmacokinetics in Rats--Procedure:
The animals are housed, fed and cared for according to the Guidelines of the Canadian Council on Animal Care. Male Sprague Dawley rats (325-375 g) are fasted overnight prior to each PO blood level study. The rats are placed in the restrainer one at a time and the box firmly secured. The zero blood sample is obtained by nicking a small (1 mm or less) piece off the tip of the tail. The tail is then stroked with a firm but gentle motion from the top to the bottom to milk out the blood. Approximately 1 mL of blood is collected into a heparirnized vacutainer tube.
Compounds are prepared as required, in a standard dosing volume of 10 mL/kg, and administered orally by passing a 16 gauge, 3" gavaging needle into the stomach. Subsequent bleeds are taken in the same manner as the zero bleed except that there is no need to nick the tail again. The tail is cleaned with a piece of gauze and milked/stroked as described above into the appropriately labelled tubes.
Immediately after sampling, blood is centrifuged, separated, put into clearly marked vials and stored in a freezer until analysed. Typical time points for determination of rat blood levels after PO dosing are 0, 15 min, 30 min, 1 h, 2 h, 4 h, and 6 h.
After the 4 hr time point bleed, food is provided to the rats ad libitum. Water is provided at all times during the study.
The following vehicles may be used in PO rat blood level determinations:
Compounds for PO blood levels can be in suspension form. For better dissolution, the solution can be placed in a sonicator for approximately 5 minutes.
For analysis, aliquots are diluted with an equal volume of acetonitrile and centrifuged to remove protein precipitate. The supernatant is injected directly onto a C-18 HPLC column with UV detection. Quantitation is done relative to a clean blood sample spiked with a known quantity of drug.
Intravenous Pharmacokinetics in Rats--Procedure
The animals are housed, fed and cared for according to the Guidelines of the Canadian Council on Animal Care. Male Sprague Dawley (325-375 g) rats are placed in plastic shoe box cages with a suspended floor, cage top, water bottle and food. The compound is prepared as required, in a standard dosing volume of 1 mL/kg.
Rats are bled for the zero blood sample and dosed under CO2 sedation. The rats, one at a time, are placed in a primed CO2 chamber and taken out as soon as they have lost their righting reflex. The rat is then placed on a restraining board, a nose cone with CO2 delivery is placed over the muzzle and the rat restrained to the board with elastics. With the use of forceps and scissors, the jugular vein is exposed and the zero sample taken, followed by a measured dose of compound which is injected into the jugular vein. Light digital pressure is applied to the injection site, and the nose cone is removed. The time is noted. This constitutes the zero time point.
The 5 min bleed is taken by nicking a piece (1-2 mm) off the tip of the tail. The tail is then stroked with a firm but gentle motion from the top of the tail to the bottom to milk the blood out of the tail. Approximately 1 mL of blood is collected into a heparinized collection vial. Subsequent bleeds are taken in the same fashion, except that there is no need to nick the tail again. The tail is cleaned with a piece of gauze and bled, as described above, into the appropriate labelled tubes. Typical time points for determination of rat blood levels after I.V. dosing are either a) 0, 5 min, 15 min, 30 min, 1 h, 2 h, 6 h, or b) 0, 5 min, 30 min, 1 h, 2 h, 4 h, 6 h.
The following vehicles may be used in IV rat blood level determinations:
DMSO (dimethylsulfoxide): Restricted to a dose volume of 0.1 mL per animal
PEG 200: Not more than 60% mixed with 40% sterile water --1 mL/kg
With Dextrose, either sodium bicarbonate or sodium carbonate can be added if the solution is cloudy. […]

T1 sequence (P23219 24-599): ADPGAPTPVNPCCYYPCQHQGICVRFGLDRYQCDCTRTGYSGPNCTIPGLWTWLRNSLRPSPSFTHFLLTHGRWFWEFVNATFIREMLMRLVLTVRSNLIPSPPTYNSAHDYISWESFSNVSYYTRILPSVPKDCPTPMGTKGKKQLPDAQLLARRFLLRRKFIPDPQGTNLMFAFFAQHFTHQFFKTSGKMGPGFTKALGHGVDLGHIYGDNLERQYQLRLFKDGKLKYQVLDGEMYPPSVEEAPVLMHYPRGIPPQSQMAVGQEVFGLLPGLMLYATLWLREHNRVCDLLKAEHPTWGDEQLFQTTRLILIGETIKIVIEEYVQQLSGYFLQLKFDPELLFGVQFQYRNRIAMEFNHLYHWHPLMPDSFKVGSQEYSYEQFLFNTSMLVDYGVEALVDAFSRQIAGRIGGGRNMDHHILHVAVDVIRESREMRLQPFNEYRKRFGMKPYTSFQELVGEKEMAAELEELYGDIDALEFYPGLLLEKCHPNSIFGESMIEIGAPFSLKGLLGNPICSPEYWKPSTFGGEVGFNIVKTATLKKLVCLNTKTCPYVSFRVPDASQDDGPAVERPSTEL

pIC50 (COX-1 [1])	pIC50 (COX-1 [2])	pIC50 (COX-2)	half-life [3]	SMILES
5.00 to 5.52	< 4.52	> 6.43	–	CCC1(C)OC(=O)C(c2ccccc2)=C1c1ccc(S(C)(=O)=O)cc1 (stereo not drawn) [a, 5-ethyl-5-methyl-4-[4-(methylsulfonyl)phenyl]-3-phenyl-2,5-dihydro-2-furanone]
4.52 to 5.00	< 4.52	–	> 1440 min	CC1(C)OC(=O)C(c2ccc(F)c(F)c2)=C1c1ccc(S(C)(=O)=O)cc1 [Compound T3-2, 3-(3,4-difluorophenyl)-5,5-dimethyl-4-[4-(methylsulfonyl)phenyl]-2,5-dihydro-2-furanone, reference compound]
< 5.00	< 4.52	6.32	–	CCC1(C)OC(=O)C(c2cccc(F)c2)=C1c1ccc(S(C)(=O)=O)cc1 (stereo not drawn) [f, 5-ethyl-3-(3-fluorophenyl)-5-methyl-4-[4-(methylsulfonyl)phenyl]-2,5-dihydro-2-furanone]
